Laboratory results published in ChEMBL document CHEMBL1139092, “Challenges in the development of mGluR5 positive allosteric modulators: the discovery of CPPHA” (Bioorg Med Chem Lett, 2007).

What was measured:
Assay type in all cases: cell-based
[1] = target: T1, Metabotropic glutamate receptor 5 (Homo sapiens, UniProt P41594); assay: Activity at human mGluR5 expressed in CHO cells assessed as potentiation of glutamate response by FLIPR assay relative to glutamate
Target sequence in this assay (P41594 21-1212 limits assumed): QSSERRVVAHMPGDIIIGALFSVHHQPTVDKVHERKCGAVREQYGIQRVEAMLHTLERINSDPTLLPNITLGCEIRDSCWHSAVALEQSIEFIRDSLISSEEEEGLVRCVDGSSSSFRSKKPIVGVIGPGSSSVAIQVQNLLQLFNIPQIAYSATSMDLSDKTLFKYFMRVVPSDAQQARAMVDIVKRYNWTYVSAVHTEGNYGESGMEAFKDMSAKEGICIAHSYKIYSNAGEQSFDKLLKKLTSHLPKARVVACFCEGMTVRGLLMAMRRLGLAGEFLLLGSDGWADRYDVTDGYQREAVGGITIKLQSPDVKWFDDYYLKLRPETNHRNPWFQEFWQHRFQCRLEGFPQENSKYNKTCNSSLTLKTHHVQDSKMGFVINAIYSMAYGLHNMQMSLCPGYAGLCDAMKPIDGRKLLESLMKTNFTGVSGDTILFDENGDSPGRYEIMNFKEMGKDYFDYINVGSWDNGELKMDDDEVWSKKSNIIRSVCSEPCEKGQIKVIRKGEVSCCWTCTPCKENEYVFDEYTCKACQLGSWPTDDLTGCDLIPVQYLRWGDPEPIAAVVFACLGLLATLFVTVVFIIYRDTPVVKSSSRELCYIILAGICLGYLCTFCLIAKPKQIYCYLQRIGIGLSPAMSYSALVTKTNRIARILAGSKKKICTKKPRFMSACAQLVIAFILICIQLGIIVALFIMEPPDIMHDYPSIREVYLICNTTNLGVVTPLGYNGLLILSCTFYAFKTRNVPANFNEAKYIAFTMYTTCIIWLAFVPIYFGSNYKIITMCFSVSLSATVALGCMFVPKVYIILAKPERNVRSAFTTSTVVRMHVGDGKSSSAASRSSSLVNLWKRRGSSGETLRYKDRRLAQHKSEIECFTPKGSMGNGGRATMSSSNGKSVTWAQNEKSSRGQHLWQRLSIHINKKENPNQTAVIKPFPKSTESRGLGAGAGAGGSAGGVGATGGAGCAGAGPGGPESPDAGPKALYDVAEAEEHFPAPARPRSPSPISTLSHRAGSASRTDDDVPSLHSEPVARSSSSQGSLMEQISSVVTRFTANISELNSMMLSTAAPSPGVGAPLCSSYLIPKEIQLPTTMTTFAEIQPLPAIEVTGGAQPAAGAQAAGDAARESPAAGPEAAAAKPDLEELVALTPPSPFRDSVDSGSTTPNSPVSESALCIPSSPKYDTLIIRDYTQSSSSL

[2] = target: T1, Metabotropic glutamate receptor 5; assay: Activity at human mGluR5 expressed in CHO cells assessed as potentiation of glutamate response by FLIPR assay
Target sequence in this assay (P41594 whole entry): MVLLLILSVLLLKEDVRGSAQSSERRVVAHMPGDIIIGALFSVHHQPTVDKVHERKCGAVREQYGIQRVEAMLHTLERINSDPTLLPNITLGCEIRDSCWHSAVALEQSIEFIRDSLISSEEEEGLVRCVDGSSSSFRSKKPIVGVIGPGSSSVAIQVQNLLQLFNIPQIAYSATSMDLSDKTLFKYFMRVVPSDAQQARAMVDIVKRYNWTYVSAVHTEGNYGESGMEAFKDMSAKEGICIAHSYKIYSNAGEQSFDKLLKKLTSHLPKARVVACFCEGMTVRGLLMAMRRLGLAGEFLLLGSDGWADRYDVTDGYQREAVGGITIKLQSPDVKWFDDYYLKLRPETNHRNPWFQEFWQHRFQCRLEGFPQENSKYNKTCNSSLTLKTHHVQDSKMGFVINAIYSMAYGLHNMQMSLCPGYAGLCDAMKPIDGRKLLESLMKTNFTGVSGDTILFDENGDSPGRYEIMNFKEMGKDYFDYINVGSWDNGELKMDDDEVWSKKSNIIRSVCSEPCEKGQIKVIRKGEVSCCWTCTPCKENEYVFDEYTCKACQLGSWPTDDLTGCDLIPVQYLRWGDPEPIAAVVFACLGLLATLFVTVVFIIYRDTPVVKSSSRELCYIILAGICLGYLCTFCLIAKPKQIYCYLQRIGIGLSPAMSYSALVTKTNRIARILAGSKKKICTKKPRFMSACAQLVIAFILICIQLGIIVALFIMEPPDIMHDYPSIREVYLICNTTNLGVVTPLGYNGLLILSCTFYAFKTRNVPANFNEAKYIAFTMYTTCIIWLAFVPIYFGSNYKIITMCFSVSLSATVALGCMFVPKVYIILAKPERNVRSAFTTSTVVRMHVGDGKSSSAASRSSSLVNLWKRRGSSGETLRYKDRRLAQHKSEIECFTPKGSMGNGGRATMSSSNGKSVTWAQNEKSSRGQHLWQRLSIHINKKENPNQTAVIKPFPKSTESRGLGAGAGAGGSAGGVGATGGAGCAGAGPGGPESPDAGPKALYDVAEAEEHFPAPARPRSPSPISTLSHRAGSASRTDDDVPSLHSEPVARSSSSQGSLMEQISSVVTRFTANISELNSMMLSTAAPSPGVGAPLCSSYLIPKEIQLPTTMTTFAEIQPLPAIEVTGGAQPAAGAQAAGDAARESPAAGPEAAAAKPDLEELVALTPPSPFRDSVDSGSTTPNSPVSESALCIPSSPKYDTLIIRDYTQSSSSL

[3] = target: Metabotropic glutamate receptor 5 (Rattus norvegicus, UniProt P31424); assay: Activity at rat mGluR5 expressed in CHO cells assessed as potentiation of glutamate response by FLIPR assay
Metabotropic glutamate receptor 5 (Rattus norvegicus, UniProt P31424), sequence (P31424 whole entry): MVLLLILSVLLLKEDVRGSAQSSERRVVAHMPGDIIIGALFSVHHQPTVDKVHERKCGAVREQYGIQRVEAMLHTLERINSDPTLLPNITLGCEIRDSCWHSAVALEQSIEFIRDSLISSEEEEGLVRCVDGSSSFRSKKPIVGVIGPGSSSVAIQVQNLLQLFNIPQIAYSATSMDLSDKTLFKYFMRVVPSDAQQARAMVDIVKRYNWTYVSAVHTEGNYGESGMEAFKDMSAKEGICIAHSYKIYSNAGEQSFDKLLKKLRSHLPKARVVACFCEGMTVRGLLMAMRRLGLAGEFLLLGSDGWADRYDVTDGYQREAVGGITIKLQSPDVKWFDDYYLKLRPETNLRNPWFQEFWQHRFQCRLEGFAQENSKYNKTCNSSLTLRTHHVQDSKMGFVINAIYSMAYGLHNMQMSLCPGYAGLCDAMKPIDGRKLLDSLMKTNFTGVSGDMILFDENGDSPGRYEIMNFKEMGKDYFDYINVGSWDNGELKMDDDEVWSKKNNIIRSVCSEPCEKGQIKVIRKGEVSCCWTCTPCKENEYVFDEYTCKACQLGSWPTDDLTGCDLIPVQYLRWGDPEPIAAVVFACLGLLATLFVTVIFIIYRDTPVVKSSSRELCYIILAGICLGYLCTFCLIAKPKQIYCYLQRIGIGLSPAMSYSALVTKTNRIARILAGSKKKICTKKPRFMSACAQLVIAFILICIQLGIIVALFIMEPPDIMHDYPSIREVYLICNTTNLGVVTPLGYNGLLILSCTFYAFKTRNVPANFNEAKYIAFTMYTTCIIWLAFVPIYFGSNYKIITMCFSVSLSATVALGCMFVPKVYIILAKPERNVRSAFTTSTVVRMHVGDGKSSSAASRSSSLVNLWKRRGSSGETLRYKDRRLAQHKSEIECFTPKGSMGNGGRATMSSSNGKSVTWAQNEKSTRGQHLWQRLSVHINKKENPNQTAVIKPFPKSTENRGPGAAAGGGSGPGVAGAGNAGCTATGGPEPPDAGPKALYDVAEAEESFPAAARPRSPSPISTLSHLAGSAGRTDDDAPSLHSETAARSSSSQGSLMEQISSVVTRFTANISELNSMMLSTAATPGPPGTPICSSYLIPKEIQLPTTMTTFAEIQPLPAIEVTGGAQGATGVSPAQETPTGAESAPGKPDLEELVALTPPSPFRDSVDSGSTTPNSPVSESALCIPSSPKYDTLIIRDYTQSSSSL

Activity [1]	EC50 [2]	EC50 [3]	EC50 ([2]; cho)	Compound
3.4	13900 nM	–	–	O=C(Nc1ccccc1CN1C(=O)c2ccccc2C1=O)c1ccccn1
7.6	750 nM	> 1000 nM	–	O=C(Nc1ccc(Br)cc1CN1C(=O)c2ccccc2C1=O)c1ccccn1
11.3	260 nM	> 1000 nM	–	O=C(Nc1ccc(Cl)cc1CN1C(=O)c2ccccc2C1=O)c1ncccc1O
4.6	330 nM	–	–	O=C(Nc1ccc(Cl)cc1CN1C(=O)c2ccc(F)cc2C1=O)c1ccccn1
7.1	–	–	–	O=C(Nc1ccc(Cl)cc1CN1C(=O)c2ccccc2C1=O)c1ccccc1O
0.6	> 100000 nM	> 1000 nM	–	O=C(Nc1ccc(Cl)cc1CN1C(=O)c2ccccc2C1=O)c1cccnn1
1.3	2100 nM	> 1000 nM	–	O=C(Nc1ccc(Cl)cc1CN1C(=O)c2ccccc2C1=O)c1ncccn1
2.6	1500 nM	–	–	O=C(Nc1ccc(F)cc1CN1C(=O)c2ccccc2C1=O)c1ccccn1
1.8	35000 nM	> 1000 nM	–	O=C(Nc1ccc(Cl)cc1CN1C(=O)c2ccccc2C1=O)c1cccnc1
3.5	1400 nM	–	–	COc1ccc(NC(=O)c2ccccn2)c(CN2C(=O)c3ccccc3C2=O)c1
–	250 nM	–	–	O=C(Nc1ccc(Cl)cc1CN1C(=O)c2ccccc2C1=O)c1ccccn1 [listing 1 of 3 here]
–	–	–	250 nM	O=C(Nc1ccc(Cl)cc1CN1C(=O)c2ccccc2C1=O)c1ccccn1 [listing 2 of 3 here]
6.8	–	–	–	O=C(Nc1ccc(Cl)cc1CN1C(=O)c2ccccc2C1=O)c1ccccn1 [listing 3 of 3 here]
0.6	> 100000 nM	> 1000 nM	–	O=C(Nc1ccc(Cl)cc1CN1C(=O)c2ccccc2C1=O)c1ccccc1

More lines, now with the values behind:

Compound	Activity [1]	EC50 [2]	EC50 [3]	EC50 ([2]; cho)
O=C(Nc1ccc(Cl)cc1CN1C(=O)c2ccccc2C1=O)c1ccccc1[N+](=O)[O-]	2.9	5700 nM	> 1000 nM	–
O=C(Nc1ccc(Cl)cc1CN1C(=O)c2ccccc2C1=O)c1ccco1	6.2	2300 nM	> 1000 nM	–
O=C(Nc1ccc(Cl)cc1CN1C(=O)c2ccccc2C1=O)c1cncs1	9.2	1900 nM	> 1000 nM	–
COc1ccccc1C(=O)Nc1ccc(Cl)cc1CN1C(=O)c2ccccc2C1=O	0.6	> 100000 nM	> 1000 nM	–
Cc1ccc2c(c1C)C(=O)N(Cc1cc(Cl)ccc1NC(=O)c1ccccn1)C2=O	3.7	2200 nM	–	–
O=C(/C=C/c1cc(Cl)ccc1NC(=O)c1ccccn1)c1ccccc1	8	1700 nM	–	–
CCOc1cccc2c1C(=O)N(Cc1cc(Cl)ccc1NC(=O)c1ccccn1)C2=O	4.5	280 nM	–	–
O=C(CCc1cc(Cl)ccc1NC(=O)c1ccccn1)c1ccccc1	–	4500 nM	–	–
CCOc1cccc2c1C(=O)N(Cc1cc(Br)ccc1NC(=O)c1ccccn1)C2=O	10.7	720 nM	–	–
Cc1ccc2c(c1C)C(=O)N(Cc1cc(Br)ccc1NC(=O)c1ccccn1)C2=O	0.6	> 100000 nM	–	–
COc1cccc(C(=O)Nc2ccc(Cl)cc2CN2C(=O)c3ccccc3C2=O)c1	1.6	1500 nM	> 1000 nM	–
O=C(Nc1ccc(Br)cc1CN1C(=O)c2ccc(F)cc2C1=O)c1ccccn1	11.1	930 nM	–	–
O=C(Nc1ccc(Cl)cc1CN1C(=O)c2ccccc2C1=O)c1ccccc1C(F)(F)F	3.5	5700 nM	> 1000 nM	–
COc1ccc2c(c1OC)C(=O)N(Cc1cc(Br)ccc1NC(=O)c1ccccn1)C2=O	0.6	> 100000 nM	–	–
COc1ccc2c(c1OC)C(=O)N(Cc1cc(Cl)ccc1NC(=O)c1ccccn1)C2=O	0.6	> 100000 nM	–	–
O=C(Nc1cccc(F)c1CN1C(=O)c2ccccc2C1=O)c1ccccn1	0.9	> 100000 nM	–	–
CCN(Cc1cc(Cl)ccc1NC(=O)c1ccccn1)C(=O)c1cc(Cl)cc(Cl)c1	5.9	470 nM	–	–
O=C(Nc1ccc(Cl)cc1CN1C(=O)c2ccccc2C1=O)C1CCCCC1	4.1	1500 nM	> 1000 nM	–
